Experimental data: paper PMC9319741, “A Novel ERK2 Degrader Z734 Induces Apoptosis of MCF–7 Cells via the HERC3/p53 Signaling Pathway” (Molecules, 2022)

How the values were obtained:
[1] = target: T1, ERK2 (Homo sapiens, UniProt P28482); assay: IMAP TR-FRET enzymatic kinase (cascade) assay; assay type: biochemical
T1 construct: gene MAPK1

[2] = target: T2, ERK1 (Homo sapiens, UniProt P27361); assay: IMAP TR-FRET enzymatic kinase (cascade) assay; assay type: biochemical
T2 construct: gene MAPK3
T2 sequence (P27361 2-379): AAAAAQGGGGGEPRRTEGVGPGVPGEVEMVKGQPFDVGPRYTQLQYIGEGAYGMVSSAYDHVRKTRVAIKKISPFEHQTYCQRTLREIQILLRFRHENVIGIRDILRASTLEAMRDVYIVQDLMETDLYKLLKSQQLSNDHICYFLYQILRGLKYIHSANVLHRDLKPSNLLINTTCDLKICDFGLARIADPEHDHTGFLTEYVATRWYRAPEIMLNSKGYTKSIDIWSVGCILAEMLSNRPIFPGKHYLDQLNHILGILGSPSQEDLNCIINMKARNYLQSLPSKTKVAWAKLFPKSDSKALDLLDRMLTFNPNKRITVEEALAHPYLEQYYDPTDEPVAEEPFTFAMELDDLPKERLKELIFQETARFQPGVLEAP

T1 sequence (P28482 2-360): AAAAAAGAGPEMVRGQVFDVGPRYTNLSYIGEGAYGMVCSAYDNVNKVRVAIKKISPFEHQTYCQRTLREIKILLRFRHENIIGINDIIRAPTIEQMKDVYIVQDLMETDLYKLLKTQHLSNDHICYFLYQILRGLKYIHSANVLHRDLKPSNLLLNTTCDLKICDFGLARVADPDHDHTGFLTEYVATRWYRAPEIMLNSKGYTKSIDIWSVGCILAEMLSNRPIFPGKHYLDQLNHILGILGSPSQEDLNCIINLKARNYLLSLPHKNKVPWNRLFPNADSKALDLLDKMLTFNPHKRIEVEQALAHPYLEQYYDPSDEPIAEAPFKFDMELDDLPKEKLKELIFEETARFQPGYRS

IC50 [1]: 3 nM
IC50 [2]: 9 nM
Compound: CC(=O)NC(CC(=O)N(c1ccccc1)c1nc2ccccc2s1)c1ccccc1 (centres unmarked) [Z734]
